Measurements from patent US6777412B2 (priority 1990, dated 2004).
Read-outs that look alike come from different tables or passages of the source. Marks after values point to notes of the source that are not given here.

Experiments:
Puccinia recondita = assay: Foliar fungal disease test on plants: Puccinia recondita (Pr); assay type: in vivo
Procedure, shortened: (§1)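 Potted plants treated by foliar spray to maximum retention (100 ppm a.i. unless stated) plus root drench (~40 ppm a.i. in dry soil), with 0.05% Tween 20 on cereals, one or two days before spore-suspension inoculation.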

Erysiphe graminis hordei = assay: Foliar fungal disease test on plants: Erysiphe graminis hordei (Egh); assay type: in vivo
Pyricularia oryzae = assay type: in vivo
Venturia inaequalis = assay: Foliar fungal disease test on plants: Venturia inaequalis (Vi); assay type: in vivo
Procedure, shortened: as §1

Cercospora arachidicola = assay: Foliar fungal disease test on plants: Cercospora arachidicola (Ca); assay type: in vivo
Experimental: The compounds were tested against a variety of foliar fungal diseases of plants. The technique employed was as follows.
The plants were grown in John Innes Potting Compost (No.1 or 2) in 4 cm diameter minipots. The test compounds were formulated either by bead milling with aqueous Dispersol T or as a solution in acetone or acetone/ethanol which was diluted to the required concentration immediately before use. For the foliage diseases, the formulations (100 ppm active ingredient except where otherwise indicated) were sprayed onto the foliage and applied to the roots of the plants in the soil. The sprays were applied to maximum retention and the root drenches to a final concentration equivalent to approximately 40 ppm a.i. in dry soil. Tween 20, to give a final concentration of 0.05%, was added when the sprays were applied to cereals.
For most of the tests the compound was applied to the soil (roots) and to the foliage (by spraying) one or two days before the plant was inoculated with the disease. An exception was the test on Erysiphe graminis in which the plants were inoculated 24 hours before treatment. Foliar pathogens were applied by spray as spore suspensions onto the leaves of test plants. After inoculation, the plants were put into an appropriate environment to allow infection to proceed and then incubated until the disease was ready for assessment. The period between inoculation and assessment varied from four to fourteen days according to the disease and environment.
The disease control vas recorded by the following grading:
3=trace-5% of disease on untreated plants
2=6-25% of disease on untreated plants
1=26-59% of disease on untreated plants
0=60-100% of disease on untreated plants
Ca Cercospora arachidicola

Plasmopara viticola = assay: Foliar fungal disease test on plants: Plasmopara viticola (Pv); assay type: in vivo
Procedure, shortened: as §1

[1] = system: Phytophthora infestans lycopersici; assay type: in vivo
[2] = 100 ppm active ingredient foliar spray plus root drench (approx. 40 ppm a.i. in dry soil), one or two days before inoculation
[3] = 100 ppm active ingredient foliar spray plus root drench (approx. 40 ppm a.i. in dry soil), plants inoculated 24 hours before treatment

`CO/C=C(/C(=O)OC)c1ccccc1Oc1cc(OCc2ccc([N+](=O)[O-])cc2)ncn1` gave a melting point of 96 to 98 °C.

With `COC=C(C(=O)OC)c1ccccc1Oc1nccc(-c2ccccc2)n1` [180 of Table III] the “disease control grading, Pr (Puccinia recondita)” value (from here on “disease control grading, Pr”) (Puccinia recondita; 10 ppm foliar application only) was 4^a (4=no disease), the “disease control grading, Egh (Erysiphe graminis hordei)” value (from here on “disease control grading, Egh”) (Erysiphe graminis hordei; 10 ppm foliar application only) was 4^a (4=no disease) and the “disease control grading, Po (Pyricularia oryzae)” value (shortened to “disease control grading, Po”) (Pyricularia oryzae; 10 ppm foliar application only) was 3^a (3=trace-5% of disease on untreated plants). For the same molecule, the “disease control grading, Vi (Venturia inaegualis)” value (shortened to “disease control grading, Vi”) (Venturia inaequalis; 10 ppm foliar application only) was 4^a (4=no disease), the “disease control grading, Ca (Cercospora arachidicola)” value (“disease control grading, Ca” for short) (Cercospora arachidicola; 10 ppm foliar application only) was 3^a (3=trace-5% of disease on untreated plants) and the “disease control grading, Pv (Plasmopara viticola)” value (“disease control grading, Pv” below) (Plasmopara viticola; 10 ppm foliar application only) was 4^a (4=no disease). The “disease control grading, Pil (Phytophthora infestans lycopersici)” value (shortened to “disease control grading, Pil”) ([1]; 10 ppm foliar application only) was 4^a (4=no disease).

For `CO/C=C(/C(=O)OC)c1ccccc1Oc1cc(Sc2ccccn2)ncn1` [218 of Table I], the “disease control grading, Pr” value (Puccinia recondita; [2]) was 4 (4=no disease), the “disease control grading, Egh” value (Erysiphe graminis hordei; [3]) was 4 (4=no disease) and the “disease control grading, Po” value (Pyricularia oryzae; [2]) was 3 (3=trace-5% of disease on untreated plants). The “disease control grading, Vi” value (Venturia inaequalis; [2]) was 4 (4=no disease), the “disease control grading, Ca” value (Cercospora arachidicola; [2]) was 4 (4=no disease) and the “disease control grading, Pv” value (Plasmopara viticola; [2]) was 4 (4=no disease). For the same molecule, the “disease control grading, Pil” value [1, 2] was 3 (3=trace-5% of disease on untreated plants).

With `CO/C=C(/C(=O)OC)c1ccccc1Oc1cc(Nc2ccccn2)ncn1` [220 of Table I] the “disease control grading, Pr” value (Puccinia recondita; [2]) was 4 (4=no disease), the “disease control grading, Egh” value (Erysiphe graminis hordei; [3]) was 4 (4=no disease) and the “disease control grading, Po” value (Pyricularia oryzae; [2]) was 4 (4=no disease). For the same molecule, the “disease control grading, Vi” value (Venturia inaequalis; [2]) was 4 (4=no disease), the “disease control grading, Ca” value (Cercospora arachidicola; [2]) was 4 (4=no disease) and the “disease control grading, Pv” value (Plasmopara viticola; [2]) was 4 (4=no disease). The “disease control grading, Pil” value [1, 2] was 0 (0=60-100% of disease on untreated plants).

For `CO/C=C(/C(=O)OC)c1ccccc1Oc1cc(Sc2ncccn2)ncn1` [239 of Table I], the “disease control grading, Pr” value (Puccinia recondita; [2]) was 4 (4=no disease), the “disease control grading, Egh” value (Erysiphe graminis hordei; [3]) was 4 (4=no disease) and the “disease control grading, Po” value (Pyricularia oryzae; [2]) was 3 (3=trace-5% of disease on untreated plants). For the same molecule, the “disease control grading, Vi” value (Venturia inaequalis; [2]) was 4 (4=no disease), the “disease control grading, Ca” value (Cercospora arachidicola; [2]) was 4 (4=no disease) and the “disease control grading, Pv” value (Plasmopara viticola; [2]) was 4 (4=no disease). For the same molecule, the “disease control grading, Pil” value [1, 2] was 4 (4=no disease).

In the case of `CO/C=C(/C(=O)OC)c1ccccc1Oc1cc(N(C)c2ccccc2C#N)ncn1` [354 of Table I], the “disease control grading, Pr” value (Puccinia recondita; [2]) is reported as 4 (4=no disease), the “disease control grading, Egh” value (Erysiphe graminis hordei; [3]) is reported as 4 (4=no disease) and the “disease control grading, Po” value (Pyricularia oryzae; [2]) is reported as 3 (3=trace-5% of disease on untreated plants). For the same molecule, the “disease control grading, Vi” value (Venturia inaequalis; [2]) was 4 (4=no disease), the “disease control grading, Ca” value (Cercospora arachidicola; [2]) was 4 (4=no disease) and the “disease control grading, Pv” value (Plasmopara viticola; [2]) was 4 (4=no disease). For the same molecule, the “disease control grading, Pil” value [1, 2] was 0 (0=60-100% of disease on untreated plants).

For `CO/C=C(/C(=O)OC)c1ccccc1Oc1cc(Nc2ccccc2C#N)ncn1` [377 of Table I], the “disease control grading, Pr” value (Puccinia recondita; [2]) was 4 (4=no disease), the “disease control grading, Egh” value (Erysiphe graminis hordei; [3]) was 4 (4=no disease) and the “disease control grading, Po” value (Pyricularia oryzae; [2]) was 0 (0=60-100% of disease on untreated plants). For the same molecule, the “disease control grading, Vi” value (Venturia inaequalis; [2]) was 4 (4=no disease), the “disease control grading, Ca” value (Cercospora arachidicola; [2]) was 4 (4=no disease) and the “disease control grading, Pv” value (Plasmopara viticola; [2]) was 4 (4=no disease). The “disease control grading, Pil” value [1, 2] was 4 (4=no disease).

For `CO/C=C(/C(=O)OC)c1ccccc1Oc1cc(N(C(=O)c2ccccc2)C(=O)c2ccccc2)ncn1` [398 of Table I], the “disease control grading, Pr” value (Puccinia recondita; [2]) was 4 (4=no disease), the “disease control grading, Egh” value (Erysiphe graminis hordei; [3]) was 4 (4=no disease) and the “disease control grading, Po” value (Pyricularia oryzae; [2]) was 3 (3=trace-5% of disease on untreated plants). The “disease control grading, Vi” value (Venturia inaequalis; [2]) was 4 (4=no disease), the “disease control grading, Ca” value (Cercospora arachidicola; [2]) was 4 (4=no disease) and the “disease control grading, Pv” value (Plasmopara viticola; [2]) was 4 (4=no disease). The “disease control grading, Pil” value [1, 2] was 4 (4=no disease).
